Test results as given in US7582638B2, “Pyrazole-isoquinoline urea derivatives as p38 kinase inhibitors” (Eli Lilly and Company, priority 2005, dated 2009).
pIC50: −log10 of the molar value. Structures can show the parent of a compound that is named as a salt.

System: pMAPKAPK2
Experiment: Inhibition of p-MAPKAPK2 in vitro (anisomycin-stimulated RAW 264.7 cells, ELISA)
Type: cell-based, murine
Settings: Mus musculus, RAW264.7, p-MAPKAPK2 in vitro, read-out: IC50
Method: RAW 264.7 cells (a murine monocytic/macrophage line ATCC) are seeded at a density of 50,000 cells/well in 96-well plates with RPMI-1640 medium plus 10% fetal bovine serum (FBS) and allowed to settle and adhere to the bottom of the well for 48 hours. After reaching confluence, cells are treated for 2 hours with 10 serial dilutions of different compounds. A control compound is always included. After 2 hours, anisomicin (100 ug/ml) is added and cells are incubated for 30 minutes at 37° C. under a 5% CO2 atmosphere. Then, cells are fixed and treated with hydrogen peroxide in order to remove endogenous peroxidase. Finally, plates are blocked with FBS, washed, and an ELISA assay is carried out by using an antiphospho-MAPKAPK2 (Thr 334, Cell Signalling, Cat # 3041) antibody and ahP-Conjugated Secondary Antibody. This reaction is detected by using FEMTO (Pierce) which is an enhanced chemiluminiscent substrate ahP that results in rapid kinetic light output and high signal intensity. The compound exemplified in Example 12 is tested essentially as described above and is found to inhibit the pMAPKAPK2 enzyme production with an IC50 of 7 nM.

Row | pIC50 | SMILES
1 | 7.60 | Cc1ccc(-n2nc(C3(C)CC3)cc2NC(=O)Nc2cnc(N3CCN(C(=O)c4c(F)cccc4F)CC3)c3ccccc23)cc1 [Example 3, 1-{1-[4-(2,6-Difluoro-benzoyl)-piperazin-1-yl]-isoquinolin-4-yl}-3-[5-(1-methyl-cyclopropyl)-2-p-tolyl-2H-pyrazol-3-yl]-urea]
2 | 7.36 | Cc1ccc(-n2nc(C3(C)CC3)cc2NC(=O)Nc2cnc(N3CCN(C(=O)C4CC4)CC3)c3ccccc23)cc1 [Example 1, 1-[1-(4-Cyclopropanecarbonyl-piperazin-1-yl)-isoquinolin-4-yl]-3-[5-(1-methyl-cyclopropyl)-2-p-tolyl-2H-pyrazol-3-yl]-urea]
3 | 7.00 | COC1(c2cc(NC(=O)Nc3cnc(OC4CCN(C(=O)C5(C)CC5)CC4)c4ccccc34)n(-c3ccc(C)cc3)n2)CC1 [Example 9, 1-[5-(1-Methoxy-cyclopropyl)-2-p-tolyl-2H-pyrazol-3-yl]-3-{1-[1-(1-methyl-cyclopropanecarbonyl)-piperidin-4-yloxy]-isoquinolin-4-yl}-urea mesylate]
4 | 6.90 | Cc1ccc(-n2nc(C(C)(C)C)cc2NC(=O)Nc2cnc(OC3CCN(C(N)=O)CC3)c3ccccc23)cc1 [Example 23]
